Experimental data: PubChem BioAssay AID2060513 (Molecular Pharmacology Branch, DTP, NCI, 2025)
pIC50: −log10 of the molar value.

System: 299254-011-R-J1-PDC complex spheroids viability
Assay: Anticancer human tumor 299254-011-R-J1-PDC patient-derived melanoma cell line growth inhibition [GQUAD]
Details: for pIC50: curve of first compound; for viability, T/C: stronger effect = lower value
Procedure, shortened: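 Tumor cells were grown as complex spheroids with HUVEC endothelial cells and mesenchymal stem cells as stroma. G-quadruplex stabilizers were combined with targeted agents over half-log dilutions from near the clinical Cmax, or from 10 microM.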

[1] = second compound 0.0316 µM, first compound 0.0316 µM
[2] = second compound 0.0316 µM, first compound 0.1 µM
[3] = second compound 0.0316 µM, first compound 0.316 µM
[4] = second compound 0.0316 µM, first compound 1 µM
[5] = second compound 0.0316 µM, first compound 3.16 µM
[6] = second compound 0.0316 µM, first compound 10 µM
[7] = second compound 0.1 µM, first compound 0.0316 µM
[8] = second compound 0.1 µM, first compound 0.1 µM
[9] = second compound 0.1 µM, first compound 0.316 µM
[10] = second compound 0.1 µM, first compound 1 µM
[11] = second compound 0.1 µM, first compound 3.16 µM
[12] = second compound 0.1 µM, first compound 10 µM
[13] = second compound 0.316 µM, first compound 0.0316 µM
[14] = second compound 0.316 µM, first compound 0.1 µM
[15] = second compound 0.316 µM, first compound 0.316 µM
[16] = second compound 0.316 µM, first compound 1 µM
[17] = second compound 0.316 µM, first compound 3.16 µM
[18] = second compound 0.316 µM, first compound 10 µM
[19] = second compound 1 µM, first compound 0.0316 µM
[20] = second compound 1 µM, first compound 0.1 µM
[21] = second compound 1 µM, first compound 0.316 µM
[22] = second compound 1 µM, first compound 1 µM
[23] = second compound 1 µM, first compound 3.16 µM
[24] = second compound 1 µM, first compound 10 µM
[25] = second compound 3.16 µM, first compound 0.0316 µM
[26] = second compound 3.16 µM, first compound 0.1 µM
[27] = second compound 3.16 µM, first compound 0.316 µM
[28] = second compound 3.16 µM, first compound 1 µM
[29] = second compound 3.16 µM, first compound 3.16 µM
[30] = second compound 3.16 µM, first compound 10 µM
[31] = second compound 10 µM, first compound 0.0316 µM
[32] = second compound 10 µM, first compound 0.1 µM
[33] = second compound 10 µM, first compound 0.316 µM
[34] = second compound 10 µM, first compound 1 µM
[35] = second compound 10 µM, first compound 3.16 µM
[36] = second compound 10 µM, first compound 10 µM
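Note: spheroids exposed to the agents for seven days before readout.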
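Throughout, for viability, T/C: percent viability relative to DMSO vehicle control wells = 100%.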

Work on `C=CC(=O)N1CCN(c2nc(=O)n(-c3c(C)ccnc3C(C)C)c3nc(-c4c(O)cccc4F)c(F)cc23)C(C)C1` (stereo unspecified) + Cc1[nH]c2ccc(F)cc2c1-c1nc2c3cccnc3c3ncccc3c2[nH]1 yielded a pIC50 (second compound 0.0316 µM) of under 5.00, a pIC50 (second compound 0.1 µM) of under 5.00 and a pIC50 (second compound 0.316 µM) of under 5.00. The pIC50 (second compound 1 µM) was under 5.00, the pIC50 (second compound 3.16 µM) was under 5.00 and the pIC50 (second compound 10 µM) was under 5.00. It also gave a viability, T/C [1] of 85%, a viability, T/C [2] of 63.2% and a viability, T/C [3] of 62%. The viability, T/C [4] was 56%, the viability, T/C [5] was 67.1% and the viability, T/C [6] was 75.7%. It also gave a viability, T/C [7] of 72.9%, a viability, T/C [8] of 85% and a viability, T/C [9] of 60.5%. The viability, T/C [10] was 56.7%, the viability, T/C [11] was 66.2% and the viability, T/C [12] was 78.3%. It also gave a viability, T/C [13] of 67.3%, a viability, T/C [14] of 80.1% and a viability, T/C [15] of 63.1%. It also gave a viability, T/C [16] of 64.6%, a viability, T/C [17] of 74.2% and a viability, T/C [18] of 69.9%. For the same molecule, the viability, T/C [19] was 67.8%, the viability, T/C [20] was 69.4% and the viability, T/C [21] was 66.2%. For the same molecule, the viability, T/C [22] was 79.8%, the viability, T/C [23] was 63.7% and the viability, T/C [24] was 86.8%. The viability, T/C [25] was 73%, the viability, T/C [26] was 81.1% and the viability, T/C [27] was 73.8%. It also gave a viability, T/C [28] of 78.4%, a viability, T/C [29] of 74.7% and a viability, T/C [30] of 69.9%. The viability, T/C [31] was 74.4%, the viability, T/C [32] was 71.5% and the viability, T/C [33] was 72.5%. The viability, T/C [34] was 67.1%, the viability, T/C [35] was 77.6% and the viability, T/C [36] was 59.4%.

Work on `Cc1cccc(N(C)C(=O)C2C(O)CCN2c2nc(C)cc(C(F)(F)F)c2C#N)c1` (stereo unspecified) + Cc1[nH]c2ccc(F)cc2c1-c1nc2c3cccnc3c3ncccc3c2[nH]1 yielded a pIC50 (second compound 0.0316 µM) of under 5.00, a pIC50 (second compound 0.1 µM) of under 5.00 and a pIC50 (second compound 0.316 µM) of under 5.00. For the same molecule, the pIC50 (second compound 1 µM) was under 5.00, the pIC50 (second compound 3.16 µM) was under 5.00 and the pIC50 (second compound 10 µM) was under 5.00. It also gave a viability, T/C [1] of 104%, a viability, T/C [2] of 104% and a viability, T/C [3] of 112%. For the same molecule, the viability, T/C [4] was 90%, the viability, T/C [5] was 82.1% and the viability, T/C [6] was 90.6%. For the same molecule, the viability, T/C [7] was 86.7%, the viability, T/C [8] was 95.2% and the viability, T/C [9] was 92.1%. For the same molecule, the viability, T/C [10] was 77.5%, the viability, T/C [11] was 90.4% and the viability, T/C [12] was 112%. The viability, T/C [13] was 114%, the viability, T/C [14] was 114% and the viability, T/C [15] was 100%. It also gave a viability, T/C [16] of 88.5%, a viability, T/C [17] of 137% and a viability, T/C [18] of 82.8%. The viability, T/C [19] was 109%, the viability, T/C [20] was 85.7% and the viability, T/C [21] was 83.9%. It also gave a viability, T/C [22] of 109%, a viability, T/C [23] of 103% and a viability, T/C [24] of 102%. The viability, T/C [25] was 91.3%, the viability, T/C [26] was 122% and the viability, T/C [27] was 91.4%. For the same molecule, the viability, T/C [28] was 98.6%, the viability, T/C [29] was 116% and the viability, T/C [30] was 94.5%. The viability, T/C [31] was 93.8%, the viability, T/C [32] was 116% and the viability, T/C [33] was 103%. The viability, T/C [34] was 89.5%, the viability, T/C [35] was 84.9% and the viability, T/C [36] was 84.1%.

For `O=C(c1cc(Cc2n[nH]c(=O)c3ccccc23)ccc1F)N1CCN(C(=O)C2CC2)CC1` + Cc1[nH]c2ccc(F)cc2c1-c1nc2c3cccnc3c3ncccc3c2[nH]1, the pIC50 (second compound 0.0316 µM) was under 5.00, the pIC50 (second compound 0.1 µM) was under 5.00 and the pIC50 (second compound 0.316 µM) was under 5.00. The pIC50 (second compound 1 µM) was under 5.00, the pIC50 (second compound 3.16 µM) was under 5.00 and the pIC50 (second compound 10 µM) was under 5.00. It also gave a viability, T/C [1] of 109%, a viability, T/C [2] of 102% and a viability, T/C [3] of 102%. It also gave a viability, T/C [4] of 102%, a viability, T/C [5] of 99% and a viability, T/C [6] of 91.1%. The viability, T/C [7] was 95.1%, the viability, T/C [8] was 86.3% and the viability, T/C [9] was 97.1%. The viability, T/C [10] was 110%, the viability, T/C [11] was 113% and the viability, T/C [12] was 89.9%. The viability, T/C [13] was 89.9%, the viability, T/C [14] was 109% and the viability, T/C [15] was 90.2%. It also gave a viability, T/C [16] of 95.1%, a viability, T/C [17] of 103% and a viability, T/C [18] of 104%. For the same molecule, the viability, T/C [19] was 88.8%, the viability, T/C [20] was 125% and the viability, T/C [21] was 127%. It also gave a viability, T/C [22] of 115%, a viability, T/C [23] of 90.4% and a viability, T/C [24] of 88.5%. The viability, T/C [25] was 91.3%, the viability, T/C [26] was 95.7% and the viability, T/C [27] was 93.2%. The viability, T/C [28] was 87.5%, the viability, T/C [29] was 104% and the viability, T/C [30] was 85%. It also gave a viability, T/C [31] of 91.6%, a viability, T/C [32] of 97.2% and a viability, T/C [33] of 106%. For the same molecule, the viability, T/C [34] was 104%, the viability, T/C [35] was 92.5% and the viability, T/C [36] was 93%.
